Ends that are not written are not given here.
How the values were obtained:
Experiment in all cases: MIC, broth microdilution
[1] = tested on: Bacillus subtilis (KCTC 3068); type: cell-based; conditions: B. subtilis, 2 × 10^6 CFU/mL
[2] = tested on: Pseudomonas aeruginosa (KCTC 1637); type: cell-based; conditions: P. aeruginosa, 2 × 10^6 CFU/mL
[3] = tested on: E. coli (KCTC 1682); type: cell-based, Escherichia coli; conditions: 2 × 10^6 CFU/mL
[4] = tested on: S. aureus (KCTC 1621); type: cell-based, Staphylococcus aureus; conditions: 2 × 10^6 CFU/mL
[5] = tested on: Staphylococcus epidermidis (KCTC 1917); type: cell-based; conditions: S. epidermidis, 2 × 10^6 CFU/mL
[6] = tested on: Salmonella typhimurium (KCTC 1926); type: cell-based; conditions: S. typhimurium, 2 × 10^6 CFU/mL
[7] = tested on: Enterococcus faecalis (KCTC 2011); type: cell-based; conditions: E. faecalis, 2 × 10^6 CFU/mL
[8] = tested on: Proteus vulgaris (KCTC 2433); type: cell-based; conditions: P. vulgaris, 2 × 10^6 CFU/mL
[9] = in the presence of 16 μM R9 (+R9)

Row | Molecule | antimicrobial activity (MIC) ([1]; peptide alone (−R9)) | antimicrobial activity (MIC) [2, 9] | antimicrobial activity (MIC) ([2]; peptide alone (−R9)) | antimicrobial activity (MIC) [1, 9] | antimicrobial activity (MIC) [3, 9] [µM] | antimicrobial activity (MIC) ([3]; peptide alone (−R9)) [µM] | antimicrobial activity (MIC) [4, 9] | antimicrobial activity (MIC) ([4]; peptide alone (−R9)) | antimicrobial activity (MIC) [5, 9] [µM] | antimicrobial activity (MIC) ([5]; peptide alone (−R9)) [µM] | antimicrobial activity (MIC) [6, 9] | antimicrobial activity (MIC) ([6]; peptide alone (−R9)) | antimicrobial activity (MIC) [7, 9] [µM] | antimicrobial activity (MIC) ([7]; peptide alone (−R9)) [µM] | antimicrobial activity (MIC) [8, 9] | antimicrobial activity (MIC) ([8]; peptide alone (−R9))
1 | N=C(N)NCCC[C@H](NC(=O)[C@H](CCCNC(=N)N)NC(=O)[C@H](CCCNC(=N)N)NC(=O)[C@H](CCCNC(=N)N)NC(=O)[C@H](CCCNC(=N)N)NC(=O)[C@H](CCCNC(=N)N)NC(=O)[C@H](CCCNC(=N)N)NC(=O)[C@H](CCCNC(=N)N)NC(=O)[C@@H](N)CCCNC(=N)N)C(N)=O [R9] | > 128 µM | – | – | – | – | – | – | – | – | – | – | – | – | – | – | –
2 | KWKKLLKKLLKLLKK-NH2 [M15] | 8–16/8–16 μM | 32/32 μM | 32/32 μM | 8–16/8–16 μM | 16 | 16 to 32 | 8/8 μM | 8/8 μM | 16 | 16 to 32 | 32/32 μM | 32/32 μM | 8 | 16 | 32/32 μM | 32/32 μM
3 | RRRRRRRRRGGGGIGKWLHSAKKFGKAFVGEIMNS-NH2 [R9-magainin] | 2 to 4 µM | – | 4 µM | – | – | 2 to 4 | – | 8 µM | – | 4 to 8 | – | 1 to 2 µM | – | 4 | – | 4 to 8 µM

— PMC6761801 (ACS Omega, 2019)
